Common to all, as to experiment: cells
The subject of one data set is A549 cells. As to conditions: for IC50 against A549: WST-1, 48 h, mean ± SD (n = 6); for IC50: Homo sapiens, A549, 48 h, read-out: IC50 against A549. The protocol:
(§1) Cell viability were analysed using the WST-1 cell proliferation reagent according to the earlier described technique. All cells (1 × 10^4 cells/well) were treated for 48 h with concentrations ranging from 0–200 µg/ml of ETME, ascorbic acid, catechin, tannic acid, reserpine, methyl gallate and rutin. Cell proliferation and viability were measured by measuring absorbance of the coloured product spectrophotometrically at 460 nm using a microplate ELISA reader […] EX (Thermo Electron Corporation, USA).
(§2) All spectrophotometric data were presented as the mean six times ±SD and cell cycle and ROS analysis data by FACS was introduced as the mean three times ±SD. The statistical analysis was determined by KyPlot version 2.0 beta 15 (32 bit). […] The IC50 values were compared by paired t test. P < 0.05 was considered significant.
In general terms: Tetrazolium assays rely on reduction of a dye to a coloured formazan, in cell work by metabolically active cells.

The next data set concerns WI-38 cells. The settings on record: for IC50 against WI-38: WST-1, 48 h, mean ± SD (n = 6); for IC50: Homo sapiens, WI-38, 48 h, read-out: IC50 against WI-38. The protocol:
as §1, §2

Another data set has as its system MCF-7 cells. The settings on record: for IC50 against MCF-7: WST-1, 48 h, mean ± SD (n = 6); for IC50: Homo sapiens, MCF7, 48 h, read-out: IC50 against MCF-7. The protocol:
as §1, §2

Values after ≈ are worked out from the molar mass of the structure shown.

In the case of `O.Oc1cc(O)c2c(c1)O[C@H](c1ccc(O)c(O)c1)[C@@H](O)C2` [Catechin], in the data set on A549 cells, the “cytotoxicity against A549 cells” value was “negligible cytotoxicity” and the “IC50 against A549” value came to 4010.65 ± 1849.57 µg/mL. Moreover, in the data set on WI-38 cells, the “cytotoxicity against WI-38 cells” value is “negligible cytotoxicity” and the “IC50 against WI-38” value is 753.56 ± 31.99 µg/mL. Moreover, in the data set with MCF-7 cells, the “cytotoxicity against MCF-7 cells” value is reported as “toxic” and the “IC50 against MCF-7” value came to 256.52 ± 17.14 µg/mL.

For the compound `COC(=O)[C@H]1[C@H]2C[C@@H]3c4[nH]c5cc(OC)ccc5c4CCN3C[C@H]2C[C@@H](OC(=O)c2cc(OC)c(OC)c(OC)c2)[C@@H]1OC` [Reserpine, reference compound], in the data set on A549 cells, the “cytotoxicity against A549 cells” value is “promissive cytotoxicity” and the IC50 (as a rule, the point on the concentration scale where inhibition reaches its midpoint) was found to be 68.5 ± 1.73 µg/mL (≈ 112 µM). In addition, in the data set with WI-38 cells, the “cytotoxicity against WI-38 cells” value is given as “promissive cytotoxicity” and the IC50 worked out at 50.5 ± 1.48 µg/mL (≈ 82.9 µM). In the data set with MCF-7 cells, the “cytotoxicity against MCF-7 cells” value is listed as “promissive cytotoxicity” and the IC50 was 57.3 ± 2.29 µg/mL (≈ 94.1 µM).

With `C[C@@H]1O[C@@H](OC[C@H]2O[C@@H](Oc3c(-c4ccc(O)c(O)c4)oc4cc(O)cc(O)c4c3=O)[C@H](O)[C@@H](O)[C@@H]2O)[C@H](O)[C@H](O)[C@H]1O` [Rutin], in the data set with A549 cells, the “cytotoxicity against A549 cells” value is given as “negligible cytotoxicity” and the IC50 is 4180 ± 1610 µg/mL (≈ 6840 µM). Besides, in the data set with WI-38 cells, the “cytotoxicity against WI-38 cells” value is “negligible cytotoxicity” and the IC50 is 1230 ± 195 µg/mL (≈ 2020 µM). For the same compound, in the data set with MCF-7 cells, the “cytotoxicity against MCF-7 cells” value is reported as “toxic” and the IC50 came to 271 ± 9.85 µg/mL (≈ 444 µM).

Consider `COC(=O)c1cc(O)c(O)c(O)c1` [Methyl gallate], for which, in the data set with A549 cells, the “cytotoxicity against A549 cells” value is reported as “promissive cytotoxicity” and the IC50 is 77.2 ± 1.82 µg/mL (≈ 420 µM). Moreover, in the data set on WI-38 cells, the “cytotoxicity against WI-38 cells” value was “promissive cytotoxicity” and the IC50 amounted to 344 ± 31.3 µg/mL (≈ 1870 µM). Also, in the data set with MCF-7 cells, the “cytotoxicity against MCF-7 cells” value was “promissive cytotoxicity” and the IC50 was 53 ± 1.91 µg/mL (≈ 288 µM).

On to `O=C1O[C@H]([C@@H](O)CO)C(O)=C1O` [Ascorbic acid, reference compound], for which, in the data set on A549 cells, the “cytotoxicity against A549 cells” value is “negligible cytotoxicity” and the concentration for half-maximal inhibition (IC50) came out at 6020 ± 3440 µg/mL (≈ 34200 µM). Moreover, in the data set with WI-38 cells, the “cytotoxicity against WI-38 cells” value was “negligible cytotoxicity” and the IC50 worked out at 6800 ± 2250 µg/mL (≈ 38600 µM). Also, in the data set with MCF-7 cells, the “cytotoxicity against MCF-7 cells” value was “toxic” and the IC50 was 79.1 ± 2.2 µg/mL (≈ 449 µM).

For Tannic acid, in the data set with A549 cells, the “cytotoxicity against A549 cells” value was “promissive cytotoxicity” and the “IC50 against A549” value came out at 302.25 ± 11.86 µg/mL. Also, in the data set on WI-38 cells, the “cytotoxicity against WI-38 cells” value is on record as “promissive cytotoxicity” and the “IC50 against WI-38” value worked out at 308.32 ± 8.32 µg/mL. Moreover, in the data set on MCF-7 cells, the “cytotoxicity against MCF-7 cells” value is “promissive cytotoxicity” and the “IC50 against MCF-7” value turned out to be 97.24 ± 4.89 µg/mL.
